Several values for one entry are separate records, joined by “and”; a condition that tells them apart may be missing. Equal values may be shown once. Read-outs that look alike come from different tables or passages of the source.

These results are taken from US20130071854A1, “METHODS FOR THE IDENTIFICATION AND CHARACTERIZATION OF HDAC INTERACTING COMPOUNDS” (priority 2009, published 2013).

Experiment [1] addresses T1, HDAC1 (Homo sapiens, UniProt Q13547).
T1 construct: used to probe endogenous HDACs in K562 whole cell extracts; endogenous in cells
The experiment is described as follows: Chemoproteomic binding profiling, K562 cell extract, SAHA/ITF2357 probe matrix (Kd app). Particulars: protein HDAC1; class I HDAC; read-out: Kd^app HDAC1.

Experiment [2] has as its target T2, HDAC3 (Homo sapiens, UniProt O15379).
T2 construct: used to probe endogenous HDACs in K562 whole cell extracts; endogenous in cells
The description is as above. Particulars: for Kd: protein HDAC3, NCoR complex.

Experiment [3] deals with T3, HDAC10 (Homo sapiens, UniProt Q969S8).
T3 construct: used to probe endogenous HDACs in K562 whole cell extracts; endogenous in cells
T3 sequence (Q969S8 1-669): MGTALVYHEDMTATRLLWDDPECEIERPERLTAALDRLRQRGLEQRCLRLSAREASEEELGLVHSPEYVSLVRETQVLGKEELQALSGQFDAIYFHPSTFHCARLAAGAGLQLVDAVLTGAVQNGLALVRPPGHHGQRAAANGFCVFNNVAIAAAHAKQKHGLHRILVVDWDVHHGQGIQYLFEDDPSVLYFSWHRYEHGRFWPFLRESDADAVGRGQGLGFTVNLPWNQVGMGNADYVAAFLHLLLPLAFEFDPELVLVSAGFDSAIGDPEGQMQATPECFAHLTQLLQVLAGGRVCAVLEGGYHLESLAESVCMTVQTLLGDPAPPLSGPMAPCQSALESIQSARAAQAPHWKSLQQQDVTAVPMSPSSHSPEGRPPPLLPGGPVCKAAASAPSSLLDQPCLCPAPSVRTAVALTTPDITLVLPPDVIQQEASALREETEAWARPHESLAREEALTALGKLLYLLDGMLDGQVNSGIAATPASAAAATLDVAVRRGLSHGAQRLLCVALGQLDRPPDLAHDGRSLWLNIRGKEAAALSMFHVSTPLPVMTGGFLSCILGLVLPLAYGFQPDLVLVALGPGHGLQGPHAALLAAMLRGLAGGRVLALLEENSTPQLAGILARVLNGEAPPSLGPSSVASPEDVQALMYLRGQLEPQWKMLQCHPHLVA
The description is as above. Particulars: for binding profile for HDAC10 (in words): K562 cell extract.

Experiment [4] relates to NuRD complex. The experiment is described as above. Set-up: species or system human.
Experiment [5] deals with MIER3. The experiment is described as follows: Chemoproteomic binding profiling, K562 cell extract, SAHA/ITF2357 probe matrix (Kd app), ELSA (ELM-SANT) domain protein. Also on record: species or system human. Particulars: ELSA (ELM-SANT) domain proteins.
Experiment [6] addresses T4, HDAC6 (Homo sapiens, UniProt Q9UBN7).
T4 sequence (Q9UBN7 1-1215): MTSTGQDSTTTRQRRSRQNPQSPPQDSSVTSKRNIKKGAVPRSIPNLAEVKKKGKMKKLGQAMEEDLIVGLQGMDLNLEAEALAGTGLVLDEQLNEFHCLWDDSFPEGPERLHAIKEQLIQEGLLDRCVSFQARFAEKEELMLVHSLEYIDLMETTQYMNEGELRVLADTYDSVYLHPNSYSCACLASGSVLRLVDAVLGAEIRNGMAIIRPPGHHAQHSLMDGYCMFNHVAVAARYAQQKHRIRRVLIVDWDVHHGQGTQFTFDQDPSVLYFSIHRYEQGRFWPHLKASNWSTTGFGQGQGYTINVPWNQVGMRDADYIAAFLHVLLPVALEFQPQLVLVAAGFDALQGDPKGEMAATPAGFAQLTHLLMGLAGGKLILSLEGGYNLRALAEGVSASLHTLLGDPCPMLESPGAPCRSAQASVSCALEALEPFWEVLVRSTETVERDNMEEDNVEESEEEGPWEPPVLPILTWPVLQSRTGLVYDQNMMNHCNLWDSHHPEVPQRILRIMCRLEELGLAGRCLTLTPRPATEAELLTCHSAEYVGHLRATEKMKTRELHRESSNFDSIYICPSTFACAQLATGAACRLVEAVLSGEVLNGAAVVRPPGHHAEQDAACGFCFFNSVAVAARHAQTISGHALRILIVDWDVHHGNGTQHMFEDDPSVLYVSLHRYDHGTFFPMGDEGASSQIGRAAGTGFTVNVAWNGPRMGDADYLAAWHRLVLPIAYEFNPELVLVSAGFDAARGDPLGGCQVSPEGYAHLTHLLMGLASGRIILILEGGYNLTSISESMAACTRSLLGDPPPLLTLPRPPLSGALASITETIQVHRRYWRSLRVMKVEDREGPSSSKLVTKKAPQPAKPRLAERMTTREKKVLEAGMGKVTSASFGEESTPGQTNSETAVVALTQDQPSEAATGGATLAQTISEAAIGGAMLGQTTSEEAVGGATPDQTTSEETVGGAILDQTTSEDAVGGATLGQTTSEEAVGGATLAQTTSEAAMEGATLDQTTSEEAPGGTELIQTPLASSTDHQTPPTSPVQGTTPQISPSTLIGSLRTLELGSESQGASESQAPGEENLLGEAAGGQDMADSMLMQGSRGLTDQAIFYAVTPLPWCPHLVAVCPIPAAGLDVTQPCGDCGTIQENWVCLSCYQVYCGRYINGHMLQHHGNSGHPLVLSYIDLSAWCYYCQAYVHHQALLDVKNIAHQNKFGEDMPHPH
The experiment is described as follows: Chemoproteomic binding profiling, K562 cell extract, SAHA/ITF2357 probe matrix (Kd app). Also on record: used to probe endogenous HDACs in K562 whole cell extracts; endogenous in cells. Particulars: for binding profile for HDAC6 (in words): K562 cell extract.

Experiment [7] has as its system DNTTIP1. The experiment is described as follows: Competition binding assay in cell lysate, affinity matrix, MS. Particulars: K-562 cell lysate.
Experiment [8] concerns MTA2. The experiment is described as follows: Competition binding assay in cell lysate, affinity matrix, MS (Mi-2/NuRD interactor).
Experiment [9] has as its system MTA3. Described as above.
Where [10] appears, read: protein HDAC10, class II HDAC, read-out: Kd^app HDAC10.
[11] abbreviates: protein CHD4, NuRD complex, read-out: Kd^app CHD4.
Where [12] appears, read: protein GATAD2A, NuRD complex, read-out: Kd^app GATAD2A.
The mark [13] stands for this setting: protein GATAD2B, NuRD complex, read-out: Kd^app GATAD2B.
[14] abbreviates: protein MBD3, NuRD complex, read-out: Kd^app MBD3.
[15] abbreviates: protein MTA1, NuRD complex, read-out: Kd^app MTA1.
The mark [16] stands for this setting: protein MTA2, NuRD complex, read-out: Kd^app MTA2.
[17] abbreviates: protein MTA3, NuRD complex, read-out: Kd^app MTA3.
The mark [18] stands for this setting: protein HDAC6, class II HDAC, read-out: Kd^app HDAC6.
Setting [19] is: mix of Jurkat and Ramos cell lysates.
The mark [20] stands for this setting: protein MBD2, NuRD complex, read-out: Kd^app MBD2.

T1 sequence (Q13547 whole entry): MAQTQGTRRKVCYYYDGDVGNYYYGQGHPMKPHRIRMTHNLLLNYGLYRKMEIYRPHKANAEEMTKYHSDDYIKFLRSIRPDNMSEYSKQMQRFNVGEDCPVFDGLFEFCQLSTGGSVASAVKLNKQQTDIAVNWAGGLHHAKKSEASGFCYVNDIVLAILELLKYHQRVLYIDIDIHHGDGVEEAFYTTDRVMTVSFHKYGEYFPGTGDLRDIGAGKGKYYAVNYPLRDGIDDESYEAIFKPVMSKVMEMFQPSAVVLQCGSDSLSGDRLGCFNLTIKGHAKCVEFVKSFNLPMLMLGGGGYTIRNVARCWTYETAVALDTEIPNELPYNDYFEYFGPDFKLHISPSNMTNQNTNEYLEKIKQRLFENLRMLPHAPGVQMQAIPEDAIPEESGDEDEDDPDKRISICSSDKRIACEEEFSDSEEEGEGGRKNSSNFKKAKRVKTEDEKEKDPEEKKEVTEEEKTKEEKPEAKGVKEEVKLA
T2 sequence (O15379 whole entry): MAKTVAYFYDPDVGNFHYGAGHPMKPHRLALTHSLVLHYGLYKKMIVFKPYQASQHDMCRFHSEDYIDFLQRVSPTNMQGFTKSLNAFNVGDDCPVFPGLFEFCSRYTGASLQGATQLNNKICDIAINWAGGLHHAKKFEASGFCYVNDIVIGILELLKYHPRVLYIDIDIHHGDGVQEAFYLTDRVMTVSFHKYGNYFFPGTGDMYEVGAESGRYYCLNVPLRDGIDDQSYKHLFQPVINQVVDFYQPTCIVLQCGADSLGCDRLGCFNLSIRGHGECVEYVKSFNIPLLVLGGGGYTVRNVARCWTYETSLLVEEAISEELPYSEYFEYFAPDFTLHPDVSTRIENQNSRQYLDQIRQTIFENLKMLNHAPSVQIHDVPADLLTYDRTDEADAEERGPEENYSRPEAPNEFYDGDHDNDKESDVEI
T2 sequence (O75376 whole entry partner): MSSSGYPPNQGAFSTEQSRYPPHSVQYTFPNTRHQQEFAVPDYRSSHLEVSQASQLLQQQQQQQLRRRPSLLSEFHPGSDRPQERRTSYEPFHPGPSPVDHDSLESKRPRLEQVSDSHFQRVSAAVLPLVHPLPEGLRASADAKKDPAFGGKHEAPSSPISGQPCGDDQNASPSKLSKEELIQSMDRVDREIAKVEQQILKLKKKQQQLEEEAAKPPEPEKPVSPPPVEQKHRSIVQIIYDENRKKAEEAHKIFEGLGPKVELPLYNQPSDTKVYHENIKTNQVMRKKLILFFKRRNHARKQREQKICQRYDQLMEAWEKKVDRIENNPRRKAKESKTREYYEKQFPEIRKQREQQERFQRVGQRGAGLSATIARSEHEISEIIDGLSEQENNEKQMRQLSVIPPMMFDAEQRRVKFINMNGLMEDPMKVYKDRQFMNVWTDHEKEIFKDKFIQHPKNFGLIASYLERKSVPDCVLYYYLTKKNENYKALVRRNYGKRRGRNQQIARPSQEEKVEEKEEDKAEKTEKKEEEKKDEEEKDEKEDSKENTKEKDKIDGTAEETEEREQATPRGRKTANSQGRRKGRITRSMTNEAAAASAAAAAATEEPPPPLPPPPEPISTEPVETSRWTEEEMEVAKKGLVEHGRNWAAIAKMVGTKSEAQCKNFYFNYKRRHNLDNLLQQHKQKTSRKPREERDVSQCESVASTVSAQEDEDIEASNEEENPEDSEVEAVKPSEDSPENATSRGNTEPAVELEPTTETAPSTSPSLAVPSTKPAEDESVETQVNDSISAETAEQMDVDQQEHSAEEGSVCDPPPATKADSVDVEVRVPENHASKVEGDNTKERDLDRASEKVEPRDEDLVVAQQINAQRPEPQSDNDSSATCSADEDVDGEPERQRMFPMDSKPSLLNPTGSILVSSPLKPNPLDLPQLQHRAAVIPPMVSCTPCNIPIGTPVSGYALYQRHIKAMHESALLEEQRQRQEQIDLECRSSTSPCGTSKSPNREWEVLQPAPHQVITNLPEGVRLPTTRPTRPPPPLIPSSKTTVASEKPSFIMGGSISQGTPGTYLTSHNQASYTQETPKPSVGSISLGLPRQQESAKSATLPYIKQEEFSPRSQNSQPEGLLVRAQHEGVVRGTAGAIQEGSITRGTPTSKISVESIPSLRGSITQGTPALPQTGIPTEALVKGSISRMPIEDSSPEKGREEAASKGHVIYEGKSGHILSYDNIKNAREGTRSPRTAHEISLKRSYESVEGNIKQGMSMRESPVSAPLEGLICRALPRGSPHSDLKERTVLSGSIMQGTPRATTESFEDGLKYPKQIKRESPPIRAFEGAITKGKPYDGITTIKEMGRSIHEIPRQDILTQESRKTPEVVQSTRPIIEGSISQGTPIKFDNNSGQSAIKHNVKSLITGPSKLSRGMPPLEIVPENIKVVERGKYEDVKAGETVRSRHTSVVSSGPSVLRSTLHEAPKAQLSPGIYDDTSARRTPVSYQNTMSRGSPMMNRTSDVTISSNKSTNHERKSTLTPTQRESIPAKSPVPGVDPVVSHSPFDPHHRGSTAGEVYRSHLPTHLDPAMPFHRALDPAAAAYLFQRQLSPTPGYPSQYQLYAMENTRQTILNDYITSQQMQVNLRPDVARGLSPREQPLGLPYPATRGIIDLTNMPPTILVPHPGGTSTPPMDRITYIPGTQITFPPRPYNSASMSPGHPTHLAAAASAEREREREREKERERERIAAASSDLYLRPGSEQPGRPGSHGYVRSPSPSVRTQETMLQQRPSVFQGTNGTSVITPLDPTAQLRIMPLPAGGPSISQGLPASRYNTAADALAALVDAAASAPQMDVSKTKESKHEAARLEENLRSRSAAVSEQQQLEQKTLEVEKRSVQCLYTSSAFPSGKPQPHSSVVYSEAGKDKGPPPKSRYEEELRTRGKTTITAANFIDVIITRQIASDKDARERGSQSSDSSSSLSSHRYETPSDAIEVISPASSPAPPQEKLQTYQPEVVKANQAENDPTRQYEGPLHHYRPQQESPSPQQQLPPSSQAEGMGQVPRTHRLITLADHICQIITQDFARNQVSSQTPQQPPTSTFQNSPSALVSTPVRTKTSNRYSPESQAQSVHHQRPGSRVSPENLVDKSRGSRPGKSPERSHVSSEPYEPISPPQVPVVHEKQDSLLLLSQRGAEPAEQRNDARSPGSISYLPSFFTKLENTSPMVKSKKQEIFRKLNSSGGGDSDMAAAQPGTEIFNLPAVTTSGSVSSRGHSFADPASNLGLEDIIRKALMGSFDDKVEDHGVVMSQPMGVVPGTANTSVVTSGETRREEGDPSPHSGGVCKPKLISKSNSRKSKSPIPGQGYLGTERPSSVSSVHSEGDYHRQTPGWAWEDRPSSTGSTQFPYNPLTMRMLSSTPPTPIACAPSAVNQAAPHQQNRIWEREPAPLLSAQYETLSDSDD
T2 sequence (O60907 whole entry partner): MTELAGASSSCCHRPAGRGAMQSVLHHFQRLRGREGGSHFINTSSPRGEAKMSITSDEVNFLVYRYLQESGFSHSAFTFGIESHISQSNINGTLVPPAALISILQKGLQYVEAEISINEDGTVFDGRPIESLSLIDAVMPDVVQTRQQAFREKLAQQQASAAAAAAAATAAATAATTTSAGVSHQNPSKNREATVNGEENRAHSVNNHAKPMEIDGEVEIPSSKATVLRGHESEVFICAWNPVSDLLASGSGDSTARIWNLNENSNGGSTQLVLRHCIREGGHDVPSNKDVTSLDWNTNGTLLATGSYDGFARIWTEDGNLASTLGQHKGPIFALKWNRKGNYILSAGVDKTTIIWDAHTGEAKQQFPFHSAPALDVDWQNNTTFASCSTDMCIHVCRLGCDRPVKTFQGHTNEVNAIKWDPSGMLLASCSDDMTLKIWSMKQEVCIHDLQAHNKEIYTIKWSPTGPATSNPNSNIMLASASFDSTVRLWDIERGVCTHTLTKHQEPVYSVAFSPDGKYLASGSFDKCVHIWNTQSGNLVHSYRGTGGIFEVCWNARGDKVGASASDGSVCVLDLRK
T2 sequence (Q9BZK7 whole entry partner): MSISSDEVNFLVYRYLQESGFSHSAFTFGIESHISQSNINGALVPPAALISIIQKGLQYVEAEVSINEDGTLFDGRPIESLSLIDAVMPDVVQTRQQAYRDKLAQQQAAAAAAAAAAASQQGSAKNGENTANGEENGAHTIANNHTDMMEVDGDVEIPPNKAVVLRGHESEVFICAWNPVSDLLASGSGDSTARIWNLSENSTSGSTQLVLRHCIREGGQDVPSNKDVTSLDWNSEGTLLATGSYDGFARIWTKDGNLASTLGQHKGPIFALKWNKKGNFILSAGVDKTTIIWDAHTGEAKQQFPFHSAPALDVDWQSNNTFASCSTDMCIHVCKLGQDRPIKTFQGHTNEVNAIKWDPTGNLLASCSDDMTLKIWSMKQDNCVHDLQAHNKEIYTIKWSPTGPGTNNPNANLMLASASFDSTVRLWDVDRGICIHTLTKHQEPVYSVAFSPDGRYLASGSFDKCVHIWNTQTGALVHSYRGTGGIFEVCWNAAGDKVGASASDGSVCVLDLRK
T2 sequence (Q13227 whole entry partner): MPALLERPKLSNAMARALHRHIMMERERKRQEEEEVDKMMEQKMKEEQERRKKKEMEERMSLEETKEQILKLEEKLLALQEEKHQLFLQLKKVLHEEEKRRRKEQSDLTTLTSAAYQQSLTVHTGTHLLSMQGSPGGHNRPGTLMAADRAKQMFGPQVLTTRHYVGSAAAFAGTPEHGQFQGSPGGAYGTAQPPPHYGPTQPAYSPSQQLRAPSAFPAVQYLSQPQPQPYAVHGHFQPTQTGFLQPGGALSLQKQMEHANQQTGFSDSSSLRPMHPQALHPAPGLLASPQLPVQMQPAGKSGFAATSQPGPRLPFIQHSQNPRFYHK

Regarding `CCCCOc1ccc(CC(=O)NO)cc1` [bufexamac], the Kd in [1] was over 59.7 µM; in [2], 348 µM; in [3] (setting [10]) it was 10 µM; in experiment [4] (setting [11]) it was 386 µM; in experiment [4] (setting [12]) it was 572 µM; in experiment [4] (setting [13]) it was over 59.7 µM. For the same compound, the Kd in [4] (setting [14]) amounted to 409 µM; in experiment [4] (setting [15]) it was 168 µM; in [4] (setting [16]), 555 µM; in experiment [4] (setting [17]), 626 µM; in experiment [5], 165 µM; in experiment [6] (setting [18]), 10 µM. The “binding profile for HDAC10 (in words)” value in experiment [3] was “selectivity for HDAC6 and HDAC10”. Besides, in experiment [6], the “binding profile for HDAC6 (in words)” value is “selectivity for HDAC6 and HDAC10”.
For orientation: IC50 means the concentration that gives 50% inhibition. A low value points to higher potency. As for `Nc1ccccc1NC(=O)c1ccc(CNC(=O)OCc2cccnc2)cc1` [MS-275], the Kd in [4] (read-out: Kd^app CHD4), in [4] (read-out: Kd^app GATAD2A), in [4] (read-out: Kd^app GATAD2B), in [4] (read-out: Kd^app MBD2), in experiment [4] (read-out: Kd^app MBD3) and in experiment [4] (read-out: Kd^app MTA1) was over 300 µM in each case. Also, the Kd in experiment [4] (read-out: Kd^app MTA2), in experiment [4] (read-out: Kd^app MTA3) and in experiment [5] was over 300 µM throughout. Further, the IC50 is 300 µM in experiment [7], 300 µM in [8] (K-562 cell lysate) and 300000 nM in experiment [9] (K-562 cell lysate).
Consider `O=C(CCCCCCC(=O)Nc1ccccc1)NO` [SAHA, suberoylanilide hydroxamic acid], for which the IC50 is 0.48 µM in experiment [7]; 10 µM in [8] (K-562 cell lysate); 0.53 µM in [8] (setting [19]); 1930 nM in experiment [9] (K-562 cell lysate); 1800 nM and 1820 nM in experiment [9] (setting [19]).
With `CCCC(CCC)C(=O)O` [valproate, valproic acid], the Kd in experiment [1] was 358 µM; in experiment [3] (setting [10]) it was over 10 µM; in [4] (setting [11]), 544 µM; in experiment [4] (setting [12]), 1040 µM; in experiment [4] (setting [13]), 843 µM; in [4] (setting [20]) it was 1300 µM. Besides, the Kd in [4] (setting [14]) is 930 µM; in [4] (setting [15]), 528 µM; in [4] (setting [16]), 997 µM; in experiment [4] (setting [17]), 667 µM; in experiment [5], 344 µM; in experiment [6] (read-out: Kd^app HDAC6, protein HDAC6, class II HDAC), over 10 µM.
With `O=C(/C=C/c1cccc(S(=O)(=O)Nc2ccccc2)c1)NO` [belinostat], the Kd in experiment [3] came to 4.43 µM; in experiment [6] it was 0.41 µM.
On to `Nc1ccccc1NC(=O)CCCCCCC(=O)Nc1ccccc1` [BML-210], for which the Kd is 36 µM in experiment [1]; 7 µM in [2]; over 85 µM in [3] (setting [10]); 30 µM in experiment [4] (setting [11]); over 85 µM in experiment [4] (setting [12]); 69 µM in [4] (setting [13]). In addition, the Kd in experiment [4] (setting [20]) is 83 µM; in experiment [4] (setting [14]), 59 µM; in [4] (setting [15]) it was 15 µM; in experiment [4] (setting [17]) it was 69 µM; in experiment [5] it was 47 µM; in experiment [6] (setting [18]) it was over 85 µM. The “selectivity for HDAC3 over HDAC1/HDAC2 (in words)” value in experiment [2] (K562 cell extract, compared with SAHA) is reported as “increase in selectivity for HDAC3 over HDAC1/HDAC2”. Also, the “binding profile for HDAC10 (in words)” value in experiment [3] is given as “complete loss of potency for class IIb”. For the same compound, the “binding profile for HDAC6 (in words)” value in [6] is given as “complete loss of potency for class IIb”.
